The term IC50 denotes the midpoint of a concentration-inhibition curve. Low readings indicate higher potency, high ones lower potency.

Each structure is given as a SMILES string. Bounds are passed on as bounds.

DC50, Dmax and IC50 data for 14 molecules are collected here from patent publication US20250214991A1 (Oncopia Therapeutics, Inc. d/b/a/ SK Life Science Labs, priority 2022, published 2025).

One experiment addresses IKZF2 (Homo sapiens (Human), UniProt Q96SW2+Q9UKS7). Nature of the experiment: In vitro IKZF2 HiBit Assay (HEK293T Flp-in-HiBiT cells). The conditions noted are these: HEK293T Flp-in-HiBiT cells, 6 hrs incubation; for DC50: read-out: IKZF2 HiBit DC50; for Dmax: HEK-293T, read-out: IKZF2 HiBit Dmax (%). Format: cell-based. Here is the method: In Vitro IKZF2 HiBit Assay
The HiBiT protein tagging system was applied to modified HEK293T Flp-in-HiBiT cells (polyclone) via a CRISPR/Cas9-mediated insertion of the HiBiT peptide tag (Promega™) to the N-terminus of the IKZF2 gene locus (Neon™ transfection system). Test and reference compounds are diluted from 1 mM at 3 folds for 11 doses. 25 nL of diluted compound is transfered to assay plates (Corning3570) using ECHO550, the final DMSO concentration @ 0.1%. The cells are seeded in 3000/25 μL/well to compound plates. It is then incubated for 6 hrs in TC incubator. The amount of Nano-Glo® HiBiT lytic reagent needed to perform the desired experiments is calculated. The Nano-Glo® HiBiT lytic reagent is brought to room temperature. The LgBiT protein is diluted to 1:100 and the Nano-Glo® HiBiT lytic substrate is diluted to 1:50 into an appropriate volume of room temperature Nano-Glo® HiBiT lytic buffer. 15 μL of the detection reagent (or without LgBiT) is dispensed to corresponding well according to the layout. The plate is then shaked for 10 mins at room temperature. After briefly centrifuge, the plate is read on Envision. At the indicated timepoints, the Nano-Glo® HiBiT lytic detection system (Promega™) was utilized for detecting bioluminescence of the HiBiT tag in treated cells: abundance of the tag is proportionate to the level of luminescence. Following normalization to DMSO, dose-response curves were plotted (GraphPad Prism) to determine the concentration points at which 50% of HiBiT-Helios degradation was achieved by each compound. The extent of degradation (range of luminescence) from the highest to lowest concentration points was calculated to determine the Dmax.
(§1) DC50, A: <1 nM; B: 1-10 nM; C: 10-100 nM; D: 100-1000 nM; E: 1000-10000 nM; F: >10,000 nM. Dmax, A: >80%; B: 60-80%; C: 40-60%; D: 20-40%; E: <20%.
A general note: With HiBiT, luminescence reflects the tagged protein that the partner subunit can reach.

For the next experiment, the target named is IKZF1 (Homo sapiens (Human), UniProt Q13422+Q96SW2). Nature of the experiment: In vitro IKZF1 HiBit Assay (HEK293T Flp-in-HiBiT-IKZF1 stable cell line). Format: cell-based. Particulars: HEK293T Flp-in-HiBiT-IKZF1 stable cell line, 6 hrs incubation; for DC50: read-out: IKZF1 HiBit DC50; for Dmax: HEK-293T, read-out: IKZF1 HiBit Dmax (%). Here is the method:
In Vitro IKZF1 HiBit Assay
The HiBiT protein tagging system was applied to modified Cells: modified HEK293T Flp-in-HiBiT-IKZF1 stable cell line (polyclone) via a CRISPR/Cas9-mediated insertion of the HiBiT peptide tag (Promega™) to the N-terminus of the […] gene locus (Neon™ transfection system).
25 nL of diluted compound is transferred to assay plates (Corning3571) using ECHO550, the final DMSO concentration @ 0.1%. The cells are seeded in 3000/25 μL/well to compound plates. The plates are incubated for 6 hrs in TC incubator. The amount of Nano-Glo® HiBiT lytic reagent needed to perform the desired experiments is calculated. The Nano-Glo® HiBiT lytic reagent is brought to room temperature. The LgBiT protein is diluted to 1:100 and the Nano-Glo® HiBiT lytic substrate is brought to 1:50 into an appropriate volume of room temperature Nano-Glo® HiBiT lytic buffer. 15 μL of the detection reagent (or without LgBiT) is dispensed to corresponding well according to the layout. The plate is shaked for 10 mins at room temperature. After briefly centrifuge, the plateis read on Envision. At the indicated timepoints, the Nano-Glo® HiBiT lytic detection system (Promega™) was utilized for detecting bioluminescence of the HiBiT tag in treated cells: abundance of the tag is proportionate to the level of luminescence. Following normalization to DMSO, dose-response curves were plotted (GraphPad Prism) to determine the concentration points at which 50% of HiBiT-Ikaros degradation was achieved by each compound. The extent of degradation (range of luminescence) from the highest to lowest concentration points was calculated to determine the Dmax.
as §1

Another experiment has as its target CRBN/DDB1 (Homo sapiens (Human), UniProt Q96SW2). Nature of the experiment: IC50 measurements for binding to CRBN/DDB1 (HTRF). Particulars: His tagged CRBN+DDB, Cy5-labeled Thalidomide probe, one hour. As for the experimental part: In vitro Assay: IC50 Measurements for binding to CRBN/DDB1 (Table E1)
The binding potency was determined using HTRF assay technology (Perkin Elmer). Compounds were serially diluted in DMSO and 0.2 μL volume was transferred to white 384-well plate. The reaction was conducted in total volume of 20 μL with addition of 2 nM His tagged CRBN+DDB−DLS7+CXU4 (Wuxi, catalogue #RP210521GA) to compounds followed by addition of 60 nM Fluorescent probe Cy5-labeled Thalidomide (Tenova Pharma, catalogue #T52461), and 0.4 nM of MAb Anti-6HIS Tb cryptate Gold (Cisbio, catalogue #61HI2TLA in the assay buffer (50 mM HEPES pH 7.5, 1 mM TCEP, 0.01% Brij-35, 50 mM NaCl, and 0.1% BSA). After one hour incubation at room temperature, the HTRF signals were read on Envision reader (Perkin Elemer). Data was analyzed using XLfit using four parameters dose response curve to determine IC50s. A: IC50<0.1 μM; B: 0.1 μM<IC50<[…]; C: 0.5 μM<IC50<1 μM; D: 1 μM<IC50<5 μM; E: 5 μM<IC50<10 μM
(In TR-FRET formats the signal depends on donor and acceptor labels being close together.)

Chain of IKZF2 (Q9UKS7 whole entry): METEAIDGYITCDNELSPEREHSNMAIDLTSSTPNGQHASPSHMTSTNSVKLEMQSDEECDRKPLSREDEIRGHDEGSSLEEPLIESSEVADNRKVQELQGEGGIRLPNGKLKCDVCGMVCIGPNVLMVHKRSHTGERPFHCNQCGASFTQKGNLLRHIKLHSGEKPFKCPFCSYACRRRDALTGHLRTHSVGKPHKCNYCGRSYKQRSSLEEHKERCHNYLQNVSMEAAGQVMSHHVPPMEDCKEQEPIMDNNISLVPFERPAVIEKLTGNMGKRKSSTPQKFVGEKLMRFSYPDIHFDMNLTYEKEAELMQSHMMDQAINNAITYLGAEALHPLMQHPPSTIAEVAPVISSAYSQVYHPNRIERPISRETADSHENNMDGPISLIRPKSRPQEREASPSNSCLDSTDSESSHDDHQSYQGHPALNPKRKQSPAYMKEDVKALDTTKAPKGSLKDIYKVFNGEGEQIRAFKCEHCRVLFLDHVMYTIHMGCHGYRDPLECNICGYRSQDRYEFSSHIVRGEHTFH
Chain of IKZF2 (Q96SW2 whole entry): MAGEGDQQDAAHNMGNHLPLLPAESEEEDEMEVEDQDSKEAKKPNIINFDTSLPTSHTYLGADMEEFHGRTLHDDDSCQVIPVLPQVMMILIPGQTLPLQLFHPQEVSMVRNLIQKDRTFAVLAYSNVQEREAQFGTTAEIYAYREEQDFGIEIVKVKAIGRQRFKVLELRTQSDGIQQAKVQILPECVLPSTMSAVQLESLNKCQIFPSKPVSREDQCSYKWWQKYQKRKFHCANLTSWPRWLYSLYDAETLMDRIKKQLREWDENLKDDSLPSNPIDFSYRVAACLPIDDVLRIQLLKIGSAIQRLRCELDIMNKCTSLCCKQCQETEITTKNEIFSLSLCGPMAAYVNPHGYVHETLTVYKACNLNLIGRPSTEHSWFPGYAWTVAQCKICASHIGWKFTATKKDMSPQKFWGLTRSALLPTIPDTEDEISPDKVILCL
Chain of IKZF2 (Q16531 2-1140 partner): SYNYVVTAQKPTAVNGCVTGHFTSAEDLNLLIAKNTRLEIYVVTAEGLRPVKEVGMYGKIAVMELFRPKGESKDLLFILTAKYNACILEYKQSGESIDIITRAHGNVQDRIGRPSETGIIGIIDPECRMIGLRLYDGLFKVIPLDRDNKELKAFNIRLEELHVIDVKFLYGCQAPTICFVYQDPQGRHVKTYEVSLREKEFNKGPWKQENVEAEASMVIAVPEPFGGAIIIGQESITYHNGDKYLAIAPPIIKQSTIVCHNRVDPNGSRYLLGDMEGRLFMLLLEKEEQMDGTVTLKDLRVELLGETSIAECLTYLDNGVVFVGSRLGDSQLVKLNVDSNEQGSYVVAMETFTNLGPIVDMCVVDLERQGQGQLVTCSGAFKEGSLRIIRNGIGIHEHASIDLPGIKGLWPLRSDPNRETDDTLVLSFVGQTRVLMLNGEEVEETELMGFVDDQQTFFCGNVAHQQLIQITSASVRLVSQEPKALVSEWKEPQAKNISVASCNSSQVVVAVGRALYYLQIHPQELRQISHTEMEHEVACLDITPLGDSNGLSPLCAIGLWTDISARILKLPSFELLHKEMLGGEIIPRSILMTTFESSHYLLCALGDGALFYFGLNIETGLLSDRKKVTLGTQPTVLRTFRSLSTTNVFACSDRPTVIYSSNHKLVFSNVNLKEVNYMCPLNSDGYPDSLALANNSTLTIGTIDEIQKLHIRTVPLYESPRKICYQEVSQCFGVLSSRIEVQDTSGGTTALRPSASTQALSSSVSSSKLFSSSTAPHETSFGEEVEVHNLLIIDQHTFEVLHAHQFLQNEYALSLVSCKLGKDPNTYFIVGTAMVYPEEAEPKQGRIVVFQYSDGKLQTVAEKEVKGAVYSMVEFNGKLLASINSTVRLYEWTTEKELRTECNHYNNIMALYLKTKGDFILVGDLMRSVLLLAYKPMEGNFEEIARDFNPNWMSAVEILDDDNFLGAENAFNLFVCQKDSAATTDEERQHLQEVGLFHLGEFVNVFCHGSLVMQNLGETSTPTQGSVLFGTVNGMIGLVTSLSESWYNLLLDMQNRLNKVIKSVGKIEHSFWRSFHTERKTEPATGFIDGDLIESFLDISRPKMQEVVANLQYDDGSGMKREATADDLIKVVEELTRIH
Chain of CRBN/DDB1 (Q96SW2 whole entry, species assumed): as the sequence (Q96SW2 whole entry) above
Chain of CRBN/DDB1 (Q16531 whole entry partner, species assumed): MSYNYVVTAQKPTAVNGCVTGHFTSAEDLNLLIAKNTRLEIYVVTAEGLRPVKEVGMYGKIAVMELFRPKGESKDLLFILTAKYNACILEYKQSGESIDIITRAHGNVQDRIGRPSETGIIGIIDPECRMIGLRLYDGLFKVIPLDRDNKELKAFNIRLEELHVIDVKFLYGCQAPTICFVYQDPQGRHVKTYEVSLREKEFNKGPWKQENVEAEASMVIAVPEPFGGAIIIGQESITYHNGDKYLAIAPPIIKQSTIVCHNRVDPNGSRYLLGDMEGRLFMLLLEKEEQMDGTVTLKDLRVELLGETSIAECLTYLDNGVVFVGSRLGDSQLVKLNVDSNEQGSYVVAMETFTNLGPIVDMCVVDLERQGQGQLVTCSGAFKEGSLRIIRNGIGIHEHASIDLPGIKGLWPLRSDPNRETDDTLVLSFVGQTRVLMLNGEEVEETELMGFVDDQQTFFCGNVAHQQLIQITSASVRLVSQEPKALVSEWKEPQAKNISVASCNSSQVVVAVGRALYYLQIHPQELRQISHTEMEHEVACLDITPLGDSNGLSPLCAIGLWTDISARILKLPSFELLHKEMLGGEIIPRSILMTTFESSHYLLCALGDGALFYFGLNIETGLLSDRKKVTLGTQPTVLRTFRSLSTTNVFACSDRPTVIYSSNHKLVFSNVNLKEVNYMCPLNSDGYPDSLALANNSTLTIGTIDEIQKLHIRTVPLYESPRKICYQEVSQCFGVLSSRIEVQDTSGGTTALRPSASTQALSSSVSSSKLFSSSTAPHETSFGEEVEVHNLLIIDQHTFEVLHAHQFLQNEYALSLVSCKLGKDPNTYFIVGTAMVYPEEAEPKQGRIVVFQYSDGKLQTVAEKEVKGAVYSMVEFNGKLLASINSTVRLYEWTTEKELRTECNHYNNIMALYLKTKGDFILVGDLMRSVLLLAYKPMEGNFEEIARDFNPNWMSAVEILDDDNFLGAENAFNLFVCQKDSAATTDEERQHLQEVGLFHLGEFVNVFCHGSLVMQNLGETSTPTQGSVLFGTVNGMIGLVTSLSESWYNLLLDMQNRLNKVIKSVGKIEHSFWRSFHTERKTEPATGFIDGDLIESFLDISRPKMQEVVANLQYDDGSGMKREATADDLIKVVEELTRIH
Chain of IKZF1 (Q13422 whole entry): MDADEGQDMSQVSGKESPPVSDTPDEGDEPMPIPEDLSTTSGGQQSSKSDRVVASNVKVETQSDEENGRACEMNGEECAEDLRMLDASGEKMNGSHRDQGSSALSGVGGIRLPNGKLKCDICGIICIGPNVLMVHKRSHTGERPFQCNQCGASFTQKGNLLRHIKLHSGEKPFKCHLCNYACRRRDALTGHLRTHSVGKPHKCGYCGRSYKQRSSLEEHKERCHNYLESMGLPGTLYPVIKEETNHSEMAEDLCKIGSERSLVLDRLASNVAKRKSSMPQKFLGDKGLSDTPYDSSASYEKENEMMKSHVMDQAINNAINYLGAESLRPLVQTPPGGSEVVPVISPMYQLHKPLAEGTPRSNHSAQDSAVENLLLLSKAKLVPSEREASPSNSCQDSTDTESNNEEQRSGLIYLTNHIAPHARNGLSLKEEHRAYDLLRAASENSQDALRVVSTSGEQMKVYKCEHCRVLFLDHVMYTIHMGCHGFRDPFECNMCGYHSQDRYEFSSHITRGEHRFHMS
Chain of IKZF1 (Q96SW2 whole entry): as the sequence (Q96SW2 whole entry) above
Chain of IKZF1 (Q16531 2-1140 partner): as the sequence (Q16531 2-1140 partner) above

Regarding `O=C1CCC(N2Cc3cc(-c4cc(CN5CCCC5)c5ccn(CCOCc6ccccc6)c5n4)ccc3C2=O)C(=O)N1` (centres unmarked) [Example 130, 3-(5-(1-(2-(benzyloxy)ethyl)-4-(pyrrolidin-1-ylmethyl)-1H-pyrrolo[2,3-b]pyridin-6-yl)-1-oxoisoindolin-2-yl) piperidine-2,6-dione], at IKZF2, the DC50 lay in the range of 1 to 10 nM and the Dmax lay in the range of 40 to 60%. For the same molecule, on IKZF1, the DC50 was above 10000 nM and the Dmax is below 20%. The molecule also yielded an IC50 on CRBN/DDB1 of 100 to 500 nM.
The matching figures for `O=C1CCC(N2Cc3cc(-c4cc(CN5CCCC5)c5ccn(C6CCCCC6)c5n4)ccc3C2=O)C(=O)N1` (centres unmarked) [Example 166, 3-(5-(1-cyclohexyl-4-(pyrrolidin-1-ylmethyl)-1H-pyrrolo[2,3-b]pyridin-6-yl)-1-oxoisoindolin-2-yl) piperidine-2,6-dione]: 1 to 10 nM, 40 to 60%, above 10000 nM, below 20% and 100 to 500 nM.
The matching figures for `COc1cc2c(cc1-c1cc(CN3CCCC3)cc3cncn13)CN(C1CCC(=O)NC1=O)C2=O` (centres unmarked) [Example 30, 3-(6-methoxy-1-oxo-5-(7-(pyrrolidin-1-ylmethyl)imidazo[1,5-a]pyridin-5-yl)isoindolin-2-yl) piperidine-2,6-dione]: 1000 to 10000 nM, below 20%, above 10000 nM, below 20% and 1000 to 5000 nM.
On to `O=C1CCC(N2Cc3cc(-c4cc(CN5CCCC5)cc5cncn45)c(F)cc3C2=O)C(=O)N1` (centres unmarked) [Example 29, 3-(6-fluoro-1-oxo-5-(7-(pyrrolidin-1-ylmethyl)imidazo[1,5-a]pyridin-5-yl)isoindolin-2-yl) piperidine-2,6-dione], for which the IC50 at CRBN/DDB1 was 1000 to 5000 nM.
At CRBN/DDB1, `O=C1CCC(N2Cc3cc(-c4cc(CN5CCCC5c5ccccc5)cc5nncn45)ccc3C2=O)C(=O)N1` (centres unmarked) [Example 50, 3-(1-oxo-5-(7-((2-phenylpyrrolidin-1-yl)methyl)-[1,2,4]triazolo[4,3-a]pyridin-5-yl)isoindolin-2-yl) piperidine-2,6-dione] gave a half-inhibitory concentration (IC50) of 1000 to 5000 nM.
On to `COc1cc(-c2cc(CN3CCCC3)cc3cncn23)cc2c1C(=O)N(C1CCC(=O)NC1=O)C2` (centres unmarked) [Example 32, 3-(7-methoxy-1-oxo-5-(7-(pyrrolidin-1-ylmethyl)imidazo[1,5-a]pyridin-5-yl)isoindolin-2-yl) piperidine-2,6-dione], for which, on CRBN/DDB1, the IC50 was 100 to 500 nM.
With `O=C1CCC(N2Cc3cc(-c4cc(CN5CCCC5C(F)F)c5ccn(C6COC6)c5n4)ccc3C2=O)C(=O)N1` (centres unmarked) [Example 252, 3-(5-(4-((2-(difluoromethyl)pyrrolidin-1-yl)methyl)-1-(oxetan-3-yl)-1H-pyrrolo[2,3-b]pyridin-6-yl)-1-oxoisoindolin-2-yl) piperidine-2,6-dione], at IKZF2, the DC50 was 10 to 100 nM and the Dmax was in the range of 40 to 60%. Moreover, at IKZF1, the DC50 is above 10000 nM and the Dmax is below 20%.
The matching figures for `O=C1CC[C@H](N2Cc3cc(-c4cc(CN5CCCC5)c5ccn(-c6cn[nH]c6)c5n4)ccc3C2=O)C(=O)N1` [Example 271, (S)-3-(5-(1-(1H-pyrazol-4-yl)-4-(pyrrolidin-1-ylmethyl)-1H-pyrrolo[2,3-b]pyridin-6-yl)-1-oxoisoindolin-2-yl) piperidine-2,6-dione]: 1 to 10 nM, above 80%, 100 to 1000 nM and 20 to 40%.
The corresponding values for `CC(C)C1CN(Cc2cc(-c3ccc4c(c3)CN(C3CCC(=O)NC3=O)C4=O)nc3[nH]ccc23)CC1O` (centres unmarked) [Example 137, 3-(5-(4-((3-hydroxy-4-isopropylpyrrolidin-1-yl)methyl)-1H-pyrrolo[2,3-b]pyridin-6-yl)-1-oxoisoindolin-2-yl) piperidine-2,6-dione] are 1 to 10 nM, above 80%, 10 to 100 nM and 20 to 40%.
As for `O=C1CCC(N2Cc3cc(-c4cc(CN5CCCC5)cc5cncn45)cc(F)c3C2=O)C(=O)N1` (centres unmarked) [Example 28, 3-(7-fluoro-1-oxo-5-(7-(pyrrolidin-1-ylmethyl)imidazo[1,5-a]pyridin-5-yl)isoindolin-2-yl) piperidine-2,6-dione], the IC50 on CRBN/DDB1 lay in the range of 500 to 1000 nM.
For `CNc1[nH]nc2c(CN3CCCC3)cc(-c3ccc4c(c3F)CN(C3CCC(=O)NC3=O)C4=O)nc12` (centres unmarked) [Example 296, 3-(4-fluoro-5-(3-(methylamino)-7-(pyrrolidin-1-ylmethyl)-1H-pyrazolo[4,3-b]pyridin-5-yl)-1-oxoisoindolin-2-yl) piperidine-2,6-dione], at IKZF2, the DC50 was below 1 nM and the Dmax is above 80%. On IKZF1, the DC50 was in the range of 1 to 10 nM and the Dmax was 60 to 80%.
The corresponding values for `O=C1CCC(N2Cc3cc(-c4cc(CN5CC(O)C5)c5ccn(C6CC6)c5n4)ccc3C2=O)C(=O)N1` (centres unmarked) [Example 135, 3-(5-(1-cyclopropyl-4-((3-hydroxyazetidin-1-yl)methyl)-1H-pyrrolo[2,3-b]pyridin-6-yl)-1-oxoisoindolin-2-yl) piperidine-2,6-dione] are 1 to 10 nM, above 80%, above 10000 nM and below 20%.
The matching figures for `CC(C)Nc1n[nH]c2c(CN3CC4(COC4)C3)cc(-c3ccc4c(c3F)CN(C3CCC(=O)NC3=O)C4=O)nc12` (centres unmarked) [Example 287, 3-(5-(7-((2-oxa-6-azaspiro[3.3]heptan-6-yl)methyl)-3-(isopropylamino)-1H-pyrazolo[4,3-b]pyridin-5-yl)-4-fluoro-1-oxoisoindolin-2-yl) piperidine-2,6-dione]: 10 to 100 nM, 60 to 80%, 100 to 1000 nM and 20 to 40%.
The corresponding values for `Cc1nc2c(CN3CCCC3)cc(-c3ccc4c(c3)CN(C3CCC(=O)NC3=O)C4=O)nc2n1C1COC1` (centres unmarked) [Example 258, 3-(5-(2-methyl-3-(oxetan-3-yl)-7-(pyrrolidin-1-ylmethyl)-3H-imidazo[4,5-b]pyridin-5-yl)-1-oxoisoindolin-2-yl) piperidine-2,6-dione] are 10 to 100 nM, 60 to 80%, above 10000 nM and below 20%.
